# Columns and labels:
# [1] = tested on: HepG2 cells; assay: HepG2 cellular scatter assay (HGF-induced, RT-CES impedance); format: cell-based; conditions: Homo sapiens, 40 ng/ml HGF
# From the text: Human Growth Factor (HGF) and its receptor (c-Met) are involved in cellular motility. Indeed HGF was also identified as Scatter Factor (SF), based on its powerful motility effect on certain cell types. Cellular motility is critical for pathological processes of oncologic disease, most importantly, the establishment of metastatic lesions distant from the primary tumor and formation of new blood vessels (angiogenesis). One therapeutic hypothesis is that this movement of cell types may be blunted or eliminated by the use of c-Met kinase inhibitors. (See: Jiang, W. C, Martin, T. A., Parr, C., Davies, G., Matsumoto, K. and Nakamura, T. Critical Reviews in Oncology/Hematology 53 (2005) 35-69. and references cited therein.) It should also be noted that cellular motility, especially with regard to angiogenesis, is important in other disease states.
# Cellular scatter was measured with a Real-Time Cell Electronic Sensing system (RT-CES), from ACEA Biosciences Inc. (San Diego, Calif.). The RT-CES system uses specialized RT-ACE microtiter plates (cat:RCD96, ACEA Biosciences Inc.) to non-invasively quantify cellular status in real-time. The interaction of cells with the surface of the plates, which are integrated with microelectronic sensor arrays, leads to the generation of a cell-electrode impedance response. A higher impedance value indicates more cell attachment and thus less cellular scatter.
# 50 μl of Assay Media (MEM supplemented with 10% FBS, 2 mM L-glutamine, 1.5 g/L sodium bicarbonate, 1 mM sodium pyruvate, and 0.1 mM non-essential amino acids) was added into 96-well RT-ACE plates and recorded for 30 min on the RT-CES. 50 μl of HepG2 cells (cat: HB-8065, ATCC) were added into each well ([…]). The plate was read in RT-CES and incubated for 20-24 hours. After the 20-24 hours incubation, 50 μl of Assay Media containing different concentrations of testing compounds was added into each well and incubated for 1 hour. Finally, 50 μl of Assay Media containing 160 ng/ml of HGF was added into each well (40 ng/ml in 200 μl). The plate was incubated and read in the RT-CES for 20-24 hours, with a record time every 15 minutes. The positive control was HGF without compounds and negative control was no-HGF without compound. All determinations were performed in duplicate wells and IC50 values were calculated using GraphPad Prism software (GraphPad Software; San Diego, Calif.).
# [2] = tested on: U87MG glioblastoma tumors; assay: U87MG glioblastoma tumor xenograft model (tumor growth inhibition); format: in vivo, athymic nude mice
# Procedure: The U87MG glioblsatoma cell line (Piedmont Research Center LLC) expresses the c-Met receptor and responds to Human Growth Factor (HGF). This study investigated whether treatment with an inhibitor of c-Met is efficacious against the U87MG glioblastoma tumor xenograft model. This study utilized a tumor growth inhibition (TGI) assay to test per os (p.o.) compound monotherapy in groups of fifteen nude mice. A control group was treated with vehicle, 20% Hydroxypropyl Beta-Cyclodextrin (HPBCD). All treatments began on Day 1 (D1) in mice bearing established subcutaneous (s.c.) U87MG tumors.
# Female athymic nude mice (Harlan) were 10-11 weeks old with a BW range of 18.1-25.0 g on D1 of the study. The animals were fed ad libitum water (reverse osmosis, 1 ppm Cl) and NIH 31 Modified and Irradiated Lab Diet® consisting of 18.0% crude protein, 5.0% crude fat, and 5.0% crude fiber. The mice were housed on irradiated ALPHA-dri® Bed-o-cobs® Laboratory Animal Bedding in static microisolators on a 12-hour light cycle at 21-22° C. (70-72° F.) and 40-60% humidity. All animals were housed in a Laboratory Animal Medicine facility that is fully accredited by the American Association for Assessment and Accreditation of Laboratory Animal Care (AAALAC). All procedures involving animals were conducted in compliance with the NIH Guide for the Care and Use of Laboratory Animals and all protocols were approved by an Internal Animal Care and Use Committee (IACUC).
# Xenografts were initiated from U87MG human glioblastoma tumor fragments maintained by serial transplantation in athymic nude mice. Each test mouse received a subcutaneous U87MG tumor fragment (1 mm^3) implanted in the right flank, and the growth of tumors was monitored as the average size approached 200 mm^3. Twelve days later, on Day 1 of the study, the animals were sorted into 4 groups (n=12-15 mice/group) with individual tumor volumes ranging from 172-352 mm^3 and group mean tumor volumes of 216 mm^3. Tumor volume was calculated using the formula:
# [formula] where w=width and l=length in mm of the tumor. Tumor weight may be estimated with the assumption that 1 mg is equivalent to 1 mm^3 of tumor volume. Drug Treatment
# Dosing solutions of compounds of the present invention were prepared fresh weekly in a vehicle consisting of 20% Hydroxypropyl Beta-Cyclodextrin (HPBCD) in water. In all groups, the dosing volume of 0.2 mL/20-g mouse was scaled to the body weight of each animal. Doses were given to allow for the HCl salt form of the compound.
# TGI was calculated from the difference between the median tumor volumes of vehicle-treated and drug-treated mice, expressed as a percentage of the median tumor volume of the vehicle-treated control group, by the following relation:
# The MTV (n) is defined as the median tumor volume (MTV) for the number of animals, n, remaining in the study on that day.
# Animals were weighed daily for the first five days of the study and then twice weekly. The mice were examined frequently for overt signs of any adverse, drug-related side effects, and clinical signs of toxicity were recorded when observed. Acceptable toxicity is defined as a group mean body-weight (BW) loss of less than 20% during the study, and not more than one treatment-related (TR) death among ten animals. A death is classified as TR if it is attributable to treatment side effects as evidenced by clinical signs and/or necropsy, or due to unknown causes during the dosing period or within 10 days of the last dose. A death is classified as non treatment-related (NTR) if there is no evidence that the death was related to drug side effects. A death is classified as non treatment-related unknown (NTRu) if the cause of death is unknown.
# The Mann-Whitney U-test, for analysis of medians, was used to determine the statistical significance of the difference between the MTVs. Prism 3.03 (GraphPad) for Windows was used for the statistical analyses and graphic presentations. […]
smiles,measurement,setting,value
"Cn1cc(-c2ccc3nnc(C(F)(F)c4ccc5ncccc5c4)n3n2)cn1 [Example 61, 6-{Difluoro-[6-(1-methyl-1H-pyrazol-4-yl)-[1,2,4]triazolo[4,3-b]pyridazin-3-yl]-methyl}-quinoline]",IC50,[1],106 nM
same,decrease of mean tumor volume,"[2]; 25 mg/kg p.o., q.d. on day 1 and b.i.d. to day 12, Day 12, p<0.01",94%
same,decrease of mean tumor volume,"[2]; 50 mg/kg p.o., b.i.d. for 7 days, 24-hr pause, then q.d. to day 12, Day 12, p<0.01",96%
same,decrease of mean tumor volume,"[2]; 75 mg/kg p.o., b.i.d. for 7 days, 24-hr pause, then q.d. to day 12, Day 12, p<0.01",97%
same,tumor regression,"[2]; 25, 50 and 75 mg/kg p.o., 12 days",Tumor regression was also observed with all three doses
same,tumor growth inhibition of U87MG tumors,"[2]; 25, 50 and 75 mg/kg p.o., 12 days, p<0.01","statistically significant, tumor growth inhibition"

# Source: patent US8173654B2, “Triazolopyridazine compounds” (Janssen Pharmaceutica N.V., priority 2005, dated 2012)
